# Laboratory results: US20070148710A1, “Cpt resistant cell line” (priority 2003, published 2007)
# Read-outs that look alike come from different tables or passages of the source.
# Assays:
# SW948CPTL cells = assay: intracellular accumulation of CPT-11 (HPLC), effect of verapamil; assay type: cell-based, human; details: SW948CPTL vs parent SW948; CPT-11 160 μM, 2 hours, 37° C. (FIG. 6A)
# Description: (§1) 10. […] Cells were washed, trypsinized, and counted. Cell pellets were lysed with water and sonicated. […] Results were generated from three independent experiments. […] Data are expressed as mean±SD. […] Data are the mean±SD of two experiments done in triplicate.
# (§2) Additionally, multidrug resistance can be evaluated by measuring the expression level of p-glycoprotein (p-gp) (Juliano et al Biochim Biophys Acta 11:152-162, 1976) and breast cancer resistant protein (BCRP) (Doyle et al Proc Natl Acad Sci U S A 95:15665-15670, 1998) in SW948 and the resistant SW948 cell lines (SW948CPTH and SW948CPTL). It is understood that the disclosed methods can also be used with other cell lines including other colon cancer cell lines. For example, the disclosed methods can be used with LS174T, WiDr, HT-29, SW403, DLD-1, SW480, SNU-C1, Caco-2, and COLO 205 cell lines.
# SW948CPTH cells = assay: as above; assay type: cell-based, human; details: SW948CPTH vs parent SW948; CPT-11 160 μM, 2 hours, 37° C. (FIG. 6A)
# Description: as §1, §2
# [1] = system: SW948CPTH cell lines recovered from xenografts; assay: clonogenic assay on cell lines recovered from tumor xenografts; assay type: cell-based; details: Homo sapiens, cultured 2-4 weeks CPT-11-free
compound,measurement,setting,value
"CCc1c2c(nc3ccc(OC(=O)N4CCC(N5CCCCC5)CC4)cc13)-c1cc3c(c(=O)n1C2)COC(=O)[C@]3(O)CC [CPT-11, Irinotecan]",intracellular accumulation of CPT-11,SW948CPTL cells,lower than the parent cell line SW948
same,intracellular accumulation of CPT-11,SW948CPTH cells,lower than the parent cell line SW948
same,IC50,"[1]; read-out: CPT-11 IC50 Dose, SW948CPTH xenograft #16 (CPT-11 treated tumor), 134 days after implant",24.7 µg/mL
same,IC50,"[1]; read-out: CPT-11 IC50 Dose, SW948CPTH xenograft #51 (untreated tumor), 121 days after implant",18 µg/mL
same,IC50,"[1]; read-out: CPT-11 IC50 Dose, SW948CPTH xenograft #53 (untreated tumor), 124 days after implant",32.2 µg/mL
same,IC50,"[1]; read-out: CPT-11 IC50 Dose, SW948CPTH xenograft #54 (untreated tumor), 103 days after implant",25.1 µg/mL
